Assay results taken from US7138361B2, “Herbicidal heterocycles” (E. I. du Pont de Nemours and Company, priority 2000, dated 2006).

Tests used:
Format in all cases: in vivo
[1] = test system: giant foxtail (Setaria faberii); assay: Test C preemergence
Description: (§1) Seeds of plant species selected from bermudagrass (Cynodon dactylon), Surinam grass (Brachiaria decumbens), cocklebur (Xanthium strumarium), corn (Zea mays), crabgrass (Digitaria sanguinalis), woolly cupgrass (Eriochloa villosa), giant foxtail (Setaria faberii), goosegrass (Eleusine indica), johnsongrass (Sorghum halepense), kochia (Kochia scoparia), lambsquarters (Chenopodium album), morningglory (Ipomoea hederacea), yellow nutsedge (Cyperus esculentus), pigweed (Amaranthus retroflexus), common ragweed (Ambrosia elatior), soybean (Glycine max) and velvetleaf (Abutilon theophrasti) were planted and treated preemergence with test chemicals formulated in a non-phytotoxic solvent mixture which included a surfactant.
(§2) At the same time, plants selected from these crop and weed species and also winter barley (Hordeum vulgare), blackgrass (Alopecurus myosuroides), canary grass (Phalaris minor), chickweed (Stellaria media), downy brome (Bromus tectorum), green foxtail (Setaria viridis), Italian ryegrass (Lolium multiflorum), wheat (Triticum aestivum), wild oat (Avena fatua) and windgrass (Apera spica-venti) were treated with postemergence applications of some of the test chemicals formulated in the same manner. Plants ranged in height from 2 to 18 cm (1- to 4-leaf stage) for postemergence treatments. Plant species in the flooded paddy test consisted of rice (Oryza saliva), smallflower flatsedge (Cyperus difformis), duck salad (Heteranthera limosa) and barnyardgrass (Echinochloa crus-galli) grown to the 2-leaf stage for testing. Treated plants and controls were maintained in a greenhouse for 12 to 14 days, after which time all species were compared to controls and visually evaluated. Plant response ratings, summarized in Table C, are based on a scale of 0 to 100 where 0 is no effect and 100 is complete control. A dash (-) response means no test result.

kochia (Kochia scoparia) = assay: Test C preemergence
Description: as §1, §2

[2] = test system: bermudagrass (Cynodon dactylon); assay: Test C preemergence
Description: as §1, §2

[3] = test system: Surinam grass (Brachiaria decumbens); assay: Test C preemergence
Description: as §1, §2

[4] = test system: johnsongrass (Sorghum halepense); assay: Test C preemergence
Description: as §1, §2

[5] = test system: lambsquarters (Chenopodium album); assay: Test C preemergence
Description: as §1, §2

[6] = test system: morningglory (Ipomoea hederacea); assay: Test C preemergence
Description: as §1, §2

Nightshade = assay: Test C preemergence
Description: as §1, §2

[7] = test system: common ragweed (Ambrosia elatior); assay: Test C preemergence
Description: as §1, §2

[8] = test system: goosegrass (Eleusine indica); assay: Test C preemergence
Description: as §1, §2

[9] = test system: velvetleaf (Abutilon theophrasti); assay: Test C preemergence
Description: as §1, §2

[10] = test system: crabgrass (Digitaria sanguinalis); assay: Test C preemergence
Description: as §1, §2

[11] = test system: cocklebur (Xanthium strumarium); assay: Test C preemergence
Description: as §1, §2

[12] = test system: yellow nutsedge (Cyperus esculentus); assay: Test C preemergence
Description: as §1, §2

Sunflower = assay: Test C preemergence; conditions: Rate 125 g/ha; scale 0 to 100, 0 no effect, 100 complete control
Description: as §1, §2

[13] = test system: pigweed (Amaranthus retroflexus); assay: Test C preemergence
Description: as §1, §2

[14] = test system: woolly cupgrass (Eriochloa villosa); assay: Test C preemergence
Description: as §1, §2

soybean (Glycine max) = assay: Test C preemergence
Description: as §1, §2

corn (Zea mays) = assay: Test C preemergence
Description: as §1, §2

[15] = test system: barnyardgrass (Echinochloa crus-galli); assay: Test C flooded paddy test; conditions: for Barnyardgrass plant response rating: Flooded Paddy, scale 0 to 100, 0 no effect, 100 complete control; for Plant response rating, Barnyardgrass: flooded paddy test, scale 0 to 100 (0 no effect, 100 complete control)
In short: (§3)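 Flooded paddy, 2-leaf stage at treatment. Readout: visual % control vs untreated, 0–100, at 12–14 d in greenhouse.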

rice (Oryza saliva) = assay: Test C flooded paddy test; conditions: for Rice plant response rating: Flooded Paddy, scale 0 to 100, 0 no effect, 100 complete control; for Plant response rating, Rice: flooded paddy test, scale 0 to 100 (0 no effect, 100 complete control)
In short: as §3

[16] = Rate 125 g/ha, scale 0 to 100, 0 no effect, 100 complete control
[17] = preemergence, Rate 31 g/ha, scale 0 to 100
[18] = preemergence, Rate 62 g/ha, scale 0 to 100
[19] = preemergence, Rate 250 g/ha, scale 0 to 100, 0 no effect, 100 complete control

CCOc1cc(N2CCC(n3ccc(C(C)(C)C)n3)C2=O)ccc1C (stereo not drawn) [Compound 106]
Plant response rating, Foxtail, Giant [1, 16]: 40
Plant response rating, Foxtail, Giant [1, 17]: 0
Plant response rating, Foxtail, Giant [1, 18]: 0
Plant response rating, Foxtail, Giant [1, 19]: 100
Plant response rating, Kochia (kochia (Kochia scoparia); [16]): 100
Plant response rating, Kochia (kochia (Kochia scoparia); [17]): 100
Plant response rating, Kochia (kochia (Kochia scoparia); [18]): 100
Plant response rating, Kochia (kochia (Kochia scoparia); [19]): 100
Plant response rating, Bermudagrass [2, 16]: 100
Plant response rating, Bermudagrass [2, 17]: 100
Plant response rating, Bermudagrass [2, 18]: 100
Plant response rating, Bermudagrass [2, 19]: 100
Plant response rating, Surinam grass [3, 16]: 90
Plant response rating, Surinam grass [3, 17]: 30
Plant response rating, Surinam grass [3, 18]: 90
Plant response rating, Surinam grass [3, 19]: 100
Plant response rating, Johnsongrass [4, 16]: 100
Plant response rating, Johnsongrass [4, 17]: 30
Plant response rating, Johnsongrass [4, 18]: 70
Plant response rating, Johnsongrass [4, 19]: 100
Plant response rating, Lambsquarters [5, 16]: 100
Plant response rating, Lambsquarters [5, 17]: 100
Plant response rating, Lambsquarters [5, 18]: 100
Plant response rating, Lambsquarters [5, 19]: 100
Plant response rating, Morningglory [6, 16]: 100
Plant response rating, Morningglory [6, 17]: 80
Plant response rating, Morningglory [6, 18]: 90
Plant response rating, Morningglory [6, 19]: 100
Plant response rating, Nightshade (Nightshade; Rate 31 g/ha, scale 0 to 100): 100
Plant response rating, Nightshade (Nightshade; Rate 62 g/ha, scale 0 to 100): 100
Plant response rating, Nightshade (Nightshade; [16]): 100
Plant response rating, Nightshade (Nightshade; Rate 250 g/ha, scale 0 to 100, 0 no effect, 100 complete control): 100
Plant response rating, Ragweed, Common [7, 16]: 100
Plant response rating, Ragweed, Common [7, 17]: 80
Plant response rating, Ragweed, Common [7, 18]: 100
Plant response rating, Ragweed, Common [7, 19]: 100
Plant response rating, Goosegrass [8, 16]: 100
Plant response rating, Goosegrass [8, 17]: 100
Plant response rating, Goosegrass [8, 18]: 100
Plant response rating, Goosegrass [8, 19]: 100
Plant response rating, Velvetleaf [9, 16]: 100
Plant response rating, Velvetleaf [9, 17]: 90
Plant response rating, Velvetleaf [9, 18]: 100
Plant response rating, Velvetleaf [9, 19]: 100
Plant response rating, Crabgrass [10, 16]: 100
Plant response rating, Crabgrass [10, 17]: 100
Plant response rating, Crabgrass [10, 18]: 100
Plant response rating, Crabgrass [10, 19]: 100
Plant response rating, Cocklebur [11, 16]: 90
Plant response rating, Cocklebur [11, 17]: 70
Plant response rating, Cocklebur [11, 18]: 90
Plant response rating, Cocklebur [11, 19]: 100
Plant response rating, Nutsedge [12, 16]: 80
Plant response rating, Nutsedge [12, 17]: 10
Plant response rating, Nutsedge [12, 18]: 10
Plant response rating, Nutsedge [12, 19]: 100
Plant response rating, Sunflower (Sunflower): 80
Plant response rating, Pigweed [13, 16]: 100
Plant response rating, Pigweed [13, 17]: 70
Plant response rating, Pigweed [13, 18]: 100
Plant response rating, Pigweed [13, 19]: 90
Plant response rating, Cupgrass, Woolly [14, 16]: 100
Plant response rating, Cupgrass, Woolly [14, 17]: 60
Plant response rating, Cupgrass, Woolly [14, 18]: 100
Plant response rating, Cupgrass, Woolly [14, 19]: 100
Plant response rating, Soybean (soybean (Glycine max); [16]): 100
Plant response rating, Soybean (soybean (Glycine max); [17]): 80
Plant response rating, Soybean (soybean (Glycine max); [18]): 100
Plant response rating, Soybean (soybean (Glycine max); [19]): 100
Plant response rating, Corn (corn (Zea mays); [16]): 0
Plant response rating, Corn (corn (Zea mays); [17]): 0
Plant response rating, Corn (corn (Zea mays); [18]): 0
Plant response rating, Corn (corn (Zea mays); [19]): 40
Barnyardgrass plant response rating ([15]; Rate 250 g/ha): 90
Barnyardgrass plant response rating ([15]; Rate 500 g/ha): 100
Plant response rating, Barnyardgrass ([15]; Rate 62 g/ha): 30
Plant response rating, Barnyardgrass ([15]; Rate 125 g/ha): 50
Rice plant response rating (rice (Oryza saliva); Rate 250 g/ha): 60
Rice plant response rating (rice (Oryza saliva); Rate 500 g/ha): 90
Plant response rating, Rice (rice (Oryza saliva); Rate 62 g/ha): 20
Plant response rating, Rice (rice (Oryza saliva); Rate 125 g/ha): 60
